Experimental data published in patent publication US12421253B2 (Mirati Therapeutics, Inc., priority 2020, dated 2025).
pIC50: −log10 of the molar value.

Legend:
KRas^G12D = target: T1, KRas^G12D (Homo sapiens, UniProt P01116, G12D); assay: KRas binding assay (TR-FRET displacement of Cy5 labelled tracer)
T1 construct: […]; biotin (biotinylated); purchased Accelegan Inc

KRas^G12R = target: T2, KRas^G12R (Homo sapiens, UniProt P01116, G12R); assay: as above
T2 construct: […]; biotin (biotinylated); purchased Accelegan Inc
T2 sequence (P01116 1-169 isoform P01116-2 G12R): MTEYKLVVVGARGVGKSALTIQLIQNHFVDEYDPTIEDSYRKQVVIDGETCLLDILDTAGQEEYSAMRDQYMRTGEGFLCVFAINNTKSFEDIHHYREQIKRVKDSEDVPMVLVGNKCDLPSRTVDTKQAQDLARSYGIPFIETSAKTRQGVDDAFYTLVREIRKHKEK

KRas^G12V = target: T3, KRas^G12V (Homo sapiens, UniProt P01116, G12V); assay: as above
T3 construct: […]; biotin (biotinylated); purchased Accelegan Inc
T3 sequence (P01116 1-169 isoform P01116-2 G12V): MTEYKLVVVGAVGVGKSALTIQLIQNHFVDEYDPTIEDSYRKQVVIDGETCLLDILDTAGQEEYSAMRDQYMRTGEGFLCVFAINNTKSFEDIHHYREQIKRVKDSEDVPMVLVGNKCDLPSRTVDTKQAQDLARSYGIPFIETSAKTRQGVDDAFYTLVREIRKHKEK

ASPC1 cells, pERK = assay: Inhibition of KRas phosphorylation of ERK (Cisbio HTRF Advanced pERK assay); format: cell-based; settings: Homo sapiens, ASPC1, 3 h, AsPC-1 cells, read-out: Inhibition (HTRF IC50 nM) of KRas-mediated Phosphorylation of ERK, AsPC-1
Procedure, shortened: (§1)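 Overnight-plated cells (RPMI, 10% FBS); compound 3 h, 37 °C, 10 uM top, 3-fold x10, 0.8% DMSO; min ctrl trametinib 0.2 uM; lysis 40 min 4 °C; pERK by HTRF, 2 h RT.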

H358 cells, pERK = assay: as above; format: cell-based; settings: Homo sapiens, NCI-H358, 3 hrs, read-out: Inhibition (HTRF IC50 nM) of KRas-mediated Phosphorylation of ERK, H358
Procedure, shortened: as §1

H460 cells, pERK = assay: as above; format: cell-based; settings: Homo sapiens, NCI-H460, 3 hrs, read-out: Inhibition (HTRF IC50 nM) of KRas-mediated Phosphorylation of ERK, H460
Procedure, shortened: as §1

H727 cells, pERK = assay: as above; format: cell-based; settings: Homo sapiens, NCI-H727, 3 h, read-out: Inhibition (HTRF IC50 nM) of KRas-mediated Phosphorylation of ERK, H727
Procedure, shortened: as §1

MKN1 cells, pERK = assay: as above; format: cell-based; settings: Homo sapiens, MKN-1, 3 h, read-out: Inhibition (HTRF IC50 nM) of KRas-mediated Phosphorylation of ERK, MKN1
Procedure, shortened: as §1

PSN1 cells, pERK = assay: as above; format: cell-based; settings: Homo sapiens, PSN1, 3 h, read-out: Inhibition (HTRF IC50 nM) of KRas-mediated Phosphorylation of ERK, PSN1
Procedure, shortened: as §1

HCT116 cells, pERK = assay: as above; format: cell-based; settings: Homo sapiens, HCT-116, 3 hrs, read-out: Inhibition (HTRF IC50 nM) of KRas-mediated Phosphorylation of ERK, HCT116
Procedure, shortened: as §1

A549 cells, pERK = assay: as above; format: cell-based; settings: Homo sapiens, 3 hrs, read-out: Inhibition (HTRF IC50 nM) of KRas-mediated Phosphorylation of ERK, A549
Procedure, shortened: as §1

[1] = tested on: AsPC-1 (G12D) cells, phospho-ERK; assay: Inhibition of KRas-mediated phosphorylation of ERK (phospho-ERK/GAPDH antibody detection, LI-COR); format: cell-based; settings: Homo sapiens, ASPC1, 3 hours
Procedure, shortened: (§2)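 Cells seeded 20,000/well, attached 12-14 h, then compound (0.5% DMSO) for 3 h. Formaldehyde-fixed, methanol-permeabilized cells stained for phospho-ERK (Thr202/Tyr204) and GAPDH; infrared imaging. Ratio expressed as % of DMSO control; IC50 from 4-parameter fit.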

[2] = tested on: NCI-H460 (Q61H) cells, phospho-ERK; assay: as above; format: cell-based; settings: Homo sapiens, 3 hours
Procedure, shortened: as §2

[3] = tested on: NCI-H727 (G12V) cells, phospho-ERK; assay: as above; format: cell-based; settings: Homo sapiens, 3 hours
Procedure, shortened: as §2

T1 sequence (P01116 1-169 isoform P01116-2 G12D): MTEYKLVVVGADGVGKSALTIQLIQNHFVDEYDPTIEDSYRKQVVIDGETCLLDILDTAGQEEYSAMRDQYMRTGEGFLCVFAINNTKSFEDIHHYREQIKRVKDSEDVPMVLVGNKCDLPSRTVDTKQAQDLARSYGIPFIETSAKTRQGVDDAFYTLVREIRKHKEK

| pIC50 (KRas^G12D) | pIC50 (KRas^G12R) | pIC50 (KRas^G12V) | IC50 (ASPC1 cells, pERK) [nM] | IC50 (H358 cells, pERK) [nM] | IC50 (H460 cells, pERK) [nM] | IC50 (H727 cells, pERK) [nM] | IC50 (MKN1 cells, pERK) [nM] | IC50 (PSN1 cells, pERK) [nM] | IC50 (HCT116 cells, pERK) [nM] | IC50 (A549 cells, pERK) [nM] | SMILES | IC50 [1] [nM] | IC50 [2] [nM] | IC50 [3] [nM] |
| --- | --- | --- | --- | --- | --- | --- | --- | --- | --- | --- | --- | --- | --- | --- |
| ≥ 8.70 | ≥ 8.70 | 7.28 | 3 | 3 | 33 | 3 | 10 | 2960 |  |  | CCc1c(F)ccc2cc(O)cc(N3CCc4c(nc(OC[C@@]56CCCN5C[C@H](F)C6)nc4N4CCCn5nc(C(=O)N6CCCC6)cc5C4)C3)c12 [Example 191, (5-(7-(8-ethyl-7-fluoro-3-hydroxynaphthalen-1-yl)-2-(((2R,7aS)-2-fluorotetrahydro-1H-pyrrolizin-7a(5H)-yl)methoxy)-5,6,7,8-tetrahydropyrido[3,4-d]pyrimidin-4-yl)-5,6,7,8-tetrahydro-4H-pyrazolo[1,5-a][1,4]diazepin-2-yl)(pyrrolidin-1-yl)methanone] |  |  |  |
| ≥ 8.70 | ≥ 8.70 | ≥ 8.70 | 45 | 22 | 169 | 43 | 7 | 2790 |  |  | O=C1NC(=O)C2CN(c3nc(OC[C@@]45CCCN4C[C@H](F)C5)nc4c3CCN(c3cc(O)cc5ccc(F)c(Br)c35)C4)CC12 (stereo partly drawn) [Example 226, 5-(7-(8-bromo-7-fluoro-3-hydroxynaphthalen-1-yl)-2-(((2R,7aS)-2-fluorohexahydro-1H-pyrrolizin-7a-yl)methoxy)-5,6,7,8-tetrahydropyrido[3,4-d]pyrimidin-4-yl)tetrahydropyrrolo[3,4-c]pyrrole-1,3(2H,3aH)-dione] |  |  |  |
| ≥ 8.70 | ≥ 8.70 | ≥ 8.70 | 2 | 3 | 49 | 4 | 7 | 2880 |  |  | CCc1c(F)ccc2cc(O)cc(N3CCc4c(nc(OC[C@@]56CCCN5C[C@H](F)C6)nc4N4CCCn5nc(C(=O)NC(C)C)cc5C4)C3)c12 [Example 188, 5-(7-(8-ethyl-7-fluoro-3-hydroxynaphthalen-1-yl)-2-(((2R,7aS)-2-fluorotetrahydro-1H-pyrrolizin-7a(5H)-yl)methoxy)-5,6,7,8-tetrahydropyrido[3,4-d]pyrimidin-4-yl)-N-isopropyl-5,6,7,8-tetrahydro-4H-pyrazolo[1,5-a][1,4]diazepine-2-carboxamide] |  |  |  |
| ≥ 8.70 | ≥ 8.70 | ≥ 8.70 | 3 | 2 | 38 | 5 | 4 | 2100 | 74 |  | CCc1c(F)ccc2cc(O)cc(N3CCc4c(nc(OC[C@@]56CCCN5C[C@H](F)C6)nc4N4CCCn5nc(C(=O)N6CCOCC6)cc5C4)C3)c12 [Example 193, (5-(7-(8-ethyl-7-fluoro-3-hydroxynaphthalen-1-yl)-2-(((2R,7aS)-2-fluorohexahydro-1H-pyrrolizin-7a-yl)methoxy)-5,6,7,8-tetrahydropyrido[3,4-d]pyrimidin-4-yl)-5,6,7,8-tetrahydro-4H-pyrazolo[1,5-a][1,4]diazepin-2-yl)(morpholino)methanone] |  |  |  |
| ≥ 8.70 | ≥ 8.70 | ≥ 8.70 | 2 | 3 | 49 | 6 | 6 | 5450 |  |  | CCc1c(F)ccc2cc(O)cc(N3CCc4c(nc(OC[C@@]56CCCN5C[C@H](F)C6)nc4N4CCCn5nc(C(=O)N(C)C)c(F)c5C4)C3)c12 [Example 190, 5-(7-(8-ethyl-7-fluoro-3-hydroxynaphthalen-1-yl)-2-(((2R,7aS)-2-fluorotetrahydro-1H-pyrrolizin-7a(5H)-yl)methoxy)-5,6,7,8-tetrahydropyrido[3,4-d]pyrimidin-4-yl)-3-fluoro-N,N-dimethyl-5,6,7,8-tetrahydro-4H-pyrazolo[1,5-a][1,4]diazepine-2-carboxamide] |  |  |  |
| ≥ 8.70 | ≥ 8.70 | 7.28 | 2 | 1 | 39 | 3 | 4 | 2680 |  |  | CCc1c(F)ccc2cc(O)cc(N3CCc4c(nc(OC[C@@]56CCCN5C[C@H](F)C6)nc4N4CCCn5nc(C(=O)N(C)C)c(C)c5C4)C3)c12 [Example 189, 5-(7-(8-ethyl-7-fluoro-3-hydroxynaphthalen-1-yl)-2-(((2R,7aS)-2-fluorotetrahydro-1H-pyrrolizin-7a(5H)-yl)methoxy)-5,6,7,8-tetrahydropyrido[3,4-d]pyrimidin-4-yl)-N,N,3-trimethyl-5,6,7,8-tetrahydro-4H-pyrazolo[1,5-a][1,4]diazepine-2-carboxamide] |  |  |  |
| ≥ 8.70 | ≥ 8.70 | ≥ 8.70 | 1 | 2 | 36 | 5 | 1 |  | 62 | 5 | CCc1c(F)ccc2cc(O)cc(N3CCc4c(nc(OC[C@@]56CCCN5C[C@H](F)C6)nc4N4CCCn5nc(C(=O)N(C)C)cc5C4)C3)c12 [Example 66, 5-(7-(8-ethyl-7-fluoro-3-hydroxynaphthalen-1-yl)-2-(((2R,7aS)-2-fluorohexahydro-1H-pyrrolizin-7a-yl)methoxy)-5,6,7,8-tetrahydropyrido[3,4-d]pyrimidin-4-yl)-N,N-dimethyl-5,6,7,8-tetrahydro-4H-pyrazolo[1,5-a][1,4]diazepine-2-carboxamide] |  |  |  |
| ≥ 8.70 | ≥ 8.70 | ≥ 8.70 | 71 | 63 | 426 | 115 | 100 | ≥ 10000 |  |  | CCc1c(F)ccc2cc(O)cc(N3CCc4c(nc(OC[C@@]56CCCN5C[C@H](F)C6)nc4N4CCCc5nn(C(=O)N(C)C)cc5C4)C3)c12 [Example 194, 5-(7-(8-ethyl-7-fluoro-3-hydroxynaphthalen-1-yl)-2-(((2R,7aS)-2-fluorohexahydro-1H-pyrrolizin-7a-yl)methoxy)-5,6,7,8-tetrahydropyrido[3,4-d]pyrimidin-4-yl)-N,N-dimethyl-5,6,7,8-tetrahydropyrazolo[4,3-c]azepine-2(4H)-carboxamide] |  |  |  |
| ≥ 8.70 | ≥ 8.70 | ≥ 8.70 | 23 | 9 | 56 | 82 | 3 | 328 | 158 |  | O=S1(=O)NCC2(CCCN(c3nc(OC[C@@]45CCCN4C[C@H](F)C5)nc4c3CCN(c3cc(O)cc5ccc(F)c(Br)c35)C4)C2)N1 (stereo partly drawn) [Example 225, 7-(7-(8-bromo-7-fluoro-3-hydroxynaphthalen-1-yl)-2-(((2R,7aS)-2-fluorohexahydro-1H-pyrrolizin-7a-yl)methoxy)-5,6,7,8-tetrahydropyrido[3,4-d]pyrimidin-4-yl)-2-thia-1,3,7-triazaspiro[4.5]decane 2,2-dioxide] |  |  |  |

| SMILES | pIC50 (KRas^G12D) | pIC50 (KRas^G12R) | pIC50 (KRas^G12V) | IC50 (ASPC1 cells, pERK) [nM] | IC50 (H358 cells, pERK) [nM] | IC50 (H460 cells, pERK) [nM] | IC50 (H727 cells, pERK) [nM] | IC50 (MKN1 cells, pERK) [nM] | IC50 (PSN1 cells, pERK) [nM] | IC50 (HCT116 cells, pERK) [nM] | IC50 (A549 cells, pERK) [nM] | IC50 [1] [nM] | IC50 [2] [nM] | IC50 [3] [nM] |
| --- | --- | --- | --- | --- | --- | --- | --- | --- | --- | --- | --- | --- | --- | --- |
| CCc1c(F)ccc2cc(O)cc(N3CCc4c(nc(OC[C@@]56CCCN5C[C@H](F)C6)nc4N4CCCC(O)CC4)C3)c12 (stereo partly drawn) [Example 30, 1-(7-(8-ethyl-7-fluoro-3-hydroxynaphthalen-1-yl)-2-(((2R,7aS)-2-fluorohexahydro-1H-pyrrolizin-7a-yl)methoxy)-5,6,7,8-tetrahydropyrido[3,4-d]pyrimidin-4-yl)azepan-4-ol] | ≥ 8.70 | ≥ 8.70 | ≥ 8.70 | 86 | 83 | 203 | 227 | 16 | 3510 | 480 |  | 447 | 309 | 399 |
